In PubChem BioAssay (NCI):
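The concentration for 50% growth inhibition is given as GI50. TGI: concentration producing complete growth inhibition.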

Columns and labels:
Test in all cases: DTP human tumour cell line panel, 384-well format
[1] = tested on: T-47D breast
[2] = tested on: HOP-62 NSCLC
[3] = tested on: OVCAR-4 ovarian
[4] = tested on: NCI-H460 NSCLC
[5] = tested on: SF-295 CNS
[6] = tested on: SN12C renal
[7] = tested on: SK-MEL-5 melanoma
[8] = tested on: HS 578T breast
[9] = tested on: MOLT-4 leukemia
[10] = tested on: DU-145 prostate
[11] = tested on: A549 NSCLC
[12] = tested on: UACC-257 melanoma
[13] = tested on: HCT-15 colon
[14] = tested on: SF-268 CNS
[15] = tested on: MDA-MB-435 melanoma
[16] = tested on: PC-3 prostate
[17] = tested on: HCC-2998 colon
[18] = tested on: RXF 393 renal
[19] = tested on: SR leukemia
[20] = tested on: OVCAR-5 ovarian
[21] = tested on: K-562 leukemia
[22] = tested on: KM12 colon
[23] = tested on: CCRF-CEM leukemia
[24] = tested on: SK-MEL-2 melanoma
[25] = tested on: HL-60(TB) leukemia
[26] = tested on: SW-620 colon
[27] = tested on: CAKI-1 renal
[28] = tested on: SF-539 CNS
[29] = tested on: OVCAR-8 ovarian
[30] = tested on: SNB-75 CNS
[31] = tested on: A498 renal
[32] = tested on: OVCAR-3 ovarian
[33] = tested on: NCI-H322M lung
[34] = tested on: ACHN renal
[35] = tested on: HOP-92 NSCLC
[36] = tested on: SK-OV-3 ovarian
[37] = tested on: HCT-116 colon
[38] = tested on: NCI-H522 lung
[39] = tested on: NCI/ADR-RES ovarian
[40] = tested on: U251 glioblastoma
[41] = tested on: BT-549 breast
[42] = tested on: MDA-MB-468 breast
[43] = tested on: RPMI-8226 leukemia
[44] = tested on: NCI-H23 lung
[45] = tested on: SNB-19 CNS
[46] = tested on: 786-0 renal
[47] = tested on: TK-10 renal
[48] = tested on: UO-31 renal
[49] = tested on: IGROV1 ovarian
[50] = tested on: NCI-H226 lung
[51] = tested on: HT29 colon
[52] = tested on: EKVX NSCLC
[53] = tested on: MCF7 breast

## COC(=O)N1c2ccc3c(nc(Cc4ccccc4)n3[C@H]3CCC[C@H](C(=O)O)C3)c2CC[C@@H]1C
[1]
  GI50: 10 µM
  TGI: > 100 µM
[2]
  GI50: 8.43 µM
  TGI: > 100 µM
[3]
  GI50: 5.43 µM
  TGI: 31 µM
[4]
  GI50: 31.5 µM
  TGI: > 100 µM
[5]
  GI50: 22 µM
  TGI: > 100 µM
[6]
  GI50: 11.5 µM
  TGI: > 100 µM
[7]
  GI50: 2.54 µM
  TGI: 15.6 µM
[8]
  GI50: 1.67 µM
  TGI: 33.7 µM
[9]
  GI50: 1.94 µM
  TGI: 16.5 µM
[10]
  GI50: 26.8 µM
  TGI: > 100 µM
[11]
  GI50: 26.6 µM
  TGI: > 100 µM
[12]
  GI50: 5.22 µM
  TGI: 82 µM
[13]
  GI50: 14.1 µM
  TGI: > 100 µM
[14]
  GI50: 24.2 µM
  TGI: > 100 µM
[15]
  GI50: 14.5 µM
  TGI: > 100 µM
[16]
  GI50: 4.78 µM
  TGI: > 100 µM
[17]
  GI50: 2.05 µM
  TGI: 11.8 µM
[18]
  GI50: 4.47 µM
  TGI: 29.5 µM
[19]
  GI50: 1.49 µM
  TGI: 18.3 µM
[20]
  GI50: 12.5 µM
  TGI: 84.7 µM
[21]
  GI50: 3.06 µM
  TGI: > 100 µM
[22]
  GI50: 14.7 µM
  TGI: > 100 µM
[23]
  GI50: 1.83 µM
  TGI: 19.2 µM
[24]
  GI50: 14.7 µM
  TGI: > 100 µM
[25]
  GI50: 0.0322 µM
  TGI: 1.51 µM
[26]
  GI50: > 100 µM
  TGI: > 100 µM
[27]
  GI50: 1.48 µM
  TGI: > 100 µM
[28]
  GI50: 20.4 µM
  TGI: > 100 µM
[29]
  GI50: 6.82 µM
  TGI: 54.4 µM
[30]
  GI50: > 100 µM
  TGI: > 100 µM
[31]
  GI50: 24.9 µM
  TGI: > 100 µM
[32]
  GI50: 5.8 µM
  TGI: 75 µM
[33]
  GI50: 11.1 µM
  TGI: 89.7 µM
[34]
  GI50: 14.5 µM
  TGI: > 100 µM
[35]
  GI50: 3.5 µM
  TGI: 81.9 µM
[36]
  GI50: 18.9 µM
  TGI: > 100 µM
[37]
  GI50: 13.9 µM
  TGI: > 100 µM
[38]
  GI50: 1.6 µM
  TGI: 18.7 µM
[39]
  GI50: 82.9 µM
  TGI: > 100 µM
[40]
  GI50: 25 µM
  TGI: > 100 µM
[41]
  GI50: 2.67 µM
  TGI: 37.6 µM
[42]
  GI50: 8.31 µM
  TGI: 61.2 µM
[43]
  GI50: 0.133 µM
  TGI: 0.314 µM
[44]
  GI50: 20 µM
  TGI: > 100 µM
[45]
  GI50: 9.78 µM
  TGI: > 100 µM
[46]
  GI50: 6.57 µM
  TGI: > 100 µM
[47]
  GI50: 2.16 µM
  TGI: 37.4 µM
[48]
  GI50: 7.99 µM
  TGI: > 100 µM
[49]
  GI50: 7.99 µM
  TGI: 77.4 µM
[50]
  GI50: 2.08 µM
  TGI: 40.2 µM
[51]
  GI50: 6.35 µM
  TGI: > 100 µM
[52]
  GI50: 47 µM
  TGI: > 100 µM
[53]
  GI50: 0.692 µM
  TGI: 33.4 µM
